Read-outs that look alike come from different tables or passages of the source.
How the values were obtained:
[1] = target: human recombinant 5-HT2A receptor (Homo sapiens (Human), UniProt P28223); experiment: 5-HT2A receptor antagonism activity test (FLIPR Calcium 5 Assay Kit); details: read-out: 5-HT2A receptor antagonism (IC50, mol/L)
[2] = target: human recombinant 5-HT1A receptor (Homo sapiens (Human), UniProt P08908); experiment: 5-HT1A receptor agonism activity test (inhibition of cAMP production, LANCE cAMP 384 Kit); format: cell-based; details: HEK293 cells expressing human recombinant 5-HT1A receptor; test concentration 0.1 nM-10000 nM; read-out: 5-HT1A receptor agonism (EC50, mol/L)
From the text: Pharmacological Test 1) 5-HT1A Receptor Agonism Activity Test

[3] = target: human recombinant D2 receptor (Homo sapiens (Human), UniProt P14416); experiment: D2 receptor antagonism activity test (inhibition of dopamine-induced decrease of cAMP production, LANCE cAMP 384 Kit); details: read-out: D2 receptor antagonism (IC50, mol/L), HEK293 cells expressing human recombinant D2 receptor, 0.1 nM-10000 nM
[4] = CHO-K1 cells expressing human recombinant 5-HT2A receptor, α-methyl-5-hydroxytryptamine 300 nM, 0.1 nM-10000 nM

human recombinant 5-HT1A receptor, sequence (P08908 whole entry): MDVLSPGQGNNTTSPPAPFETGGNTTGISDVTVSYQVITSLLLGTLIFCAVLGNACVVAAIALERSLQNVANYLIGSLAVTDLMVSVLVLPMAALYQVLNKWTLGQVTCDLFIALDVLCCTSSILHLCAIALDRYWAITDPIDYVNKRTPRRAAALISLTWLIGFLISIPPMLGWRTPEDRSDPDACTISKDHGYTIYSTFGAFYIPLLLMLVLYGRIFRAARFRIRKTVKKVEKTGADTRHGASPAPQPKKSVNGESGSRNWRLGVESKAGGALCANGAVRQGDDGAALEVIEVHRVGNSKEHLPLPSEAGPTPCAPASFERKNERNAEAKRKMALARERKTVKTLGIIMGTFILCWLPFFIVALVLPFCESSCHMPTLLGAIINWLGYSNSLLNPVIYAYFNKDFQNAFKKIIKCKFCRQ
human recombinant D2 receptor, sequence (P14416 whole entry): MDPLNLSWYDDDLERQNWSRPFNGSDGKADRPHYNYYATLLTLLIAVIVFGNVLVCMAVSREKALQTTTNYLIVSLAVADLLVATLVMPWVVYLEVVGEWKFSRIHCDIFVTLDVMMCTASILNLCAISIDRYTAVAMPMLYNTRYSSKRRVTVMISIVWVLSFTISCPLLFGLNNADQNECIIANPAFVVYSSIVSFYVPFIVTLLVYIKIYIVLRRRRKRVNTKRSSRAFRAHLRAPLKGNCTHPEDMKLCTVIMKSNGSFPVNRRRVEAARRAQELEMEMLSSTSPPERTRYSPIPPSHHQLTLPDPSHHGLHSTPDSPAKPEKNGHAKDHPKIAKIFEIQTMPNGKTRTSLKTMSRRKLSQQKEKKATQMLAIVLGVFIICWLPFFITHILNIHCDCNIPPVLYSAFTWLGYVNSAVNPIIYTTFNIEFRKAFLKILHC
human recombinant 5-HT2A receptor, sequence (P28223 whole entry): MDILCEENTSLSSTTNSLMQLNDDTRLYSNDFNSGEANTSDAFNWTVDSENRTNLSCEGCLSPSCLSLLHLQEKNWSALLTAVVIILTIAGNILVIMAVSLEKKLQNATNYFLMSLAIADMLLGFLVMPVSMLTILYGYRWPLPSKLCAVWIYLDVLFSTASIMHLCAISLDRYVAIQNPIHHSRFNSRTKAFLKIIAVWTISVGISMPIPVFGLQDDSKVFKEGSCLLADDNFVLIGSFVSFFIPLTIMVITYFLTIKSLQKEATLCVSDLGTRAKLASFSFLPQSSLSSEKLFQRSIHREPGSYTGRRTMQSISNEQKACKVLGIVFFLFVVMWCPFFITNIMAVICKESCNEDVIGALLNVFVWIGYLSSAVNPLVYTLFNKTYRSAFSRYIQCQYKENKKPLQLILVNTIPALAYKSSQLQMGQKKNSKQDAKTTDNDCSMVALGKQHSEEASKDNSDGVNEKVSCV

Row | Structure (SMILES) | IC50 [1, 4] [nM] | EC50 [2] [nM] | IC50 [3] [nM] | IC50 [1] [nM]
1 | O=C1Cc2cc(CCN3CCN(c4cccc5sc(F)cc45)CC3)c(Cl)cc2N1 [Compound of example 113, 6-chloro-5-(2-(4-(2-fluorobenzo[b]thiophen-4-yl)piperazin-1-yl)ethyl)indolin-2-one] | 716 | 9.09 | 61 | –
2 | CN1C(=O)COc2ccc(CCN3CCN(c4cccc5sccc45)CC3)cc21 [Compound of example 114, 6-(2-(4-(benzo[b]thiophen-4-yl)piperazin-1-yl)ethyl)-4-methyl-2H-benzo[b][1,4]oxazin-3(4H)-one] | 461 | 8.08 | 26.9 | –
3 | CN1C(=O)CCc2ccc(CCN3CCN(c4cccc5sccc45)CC3)cc21 [Compound of example 115, 7-(2-(4-(benzo[b]thiophen-4-yl)piperazin-1-yl)ethyl)-1-methyl-3,4-dihydroquinolin-2(1H)-one] | – | 8.52 | 29.3 | 53.7
4 | CC(=O)Nc1nc2cc(CCN3CCN(c4cccc5sccc45)CC3)ccc2s1 [Compound of example 118, N-(5-(2-(4-(benzo[b]thiophen-4-yl)piperazin-1-yl)ethyl)benzo[d]thiazol-2-yl)acetamide] | 75 | 0.602 | 119 | –
5 | CC(=O)Nc1nc2cccc(CCN3CCN(c4cccc5sccc45)CC3)c2s1 [Compound of example 119, N-(7-(2-(4-(benzo[b]thiophen-4-yl)piperazin-1-yl)ethyl)benzo[d]thiazol-2-yl)acetamide] | 34.3 | 0.787 | 4.69 | –
6 | CC(=O)Nc1nc2c(CCN3CCN(c4cccc5sccc45)CC3)cccc2s1 [Compound of example 121, N-(4-(2-(4-(benzo[b]thiophen-4-yl)piperazin-1-yl)ethyl)benzo[d]thiazol-2-yl)acetamide] | 41 | 32 | 216 | –
7 | O=C1N[C@@H]2[C@@H](CS[C@@H]2CCCCCN2CCN(c3cccc4sccc34)CC2)N1 [Compound of example 134, (3aR,4R,6aS)-4-(5-(4-(benzo[b]thiophen-4-yl)piperazin-1-yl)pentyl)tetrahydro-1H-thieno[3,4-d]imidazol-2(3H)-one] | 16.7 | 0.75 | 37.9 | –
8 | O=C1COc2c(F)cc(CCN3CCN(c4cccc5sccc45)CC3)cc2N1 [Compound of example 139, 6-(2-(4-(benzo[b]thiophen-4-yl)piperazin-1-yl)ethyl)-8-fluoro-2H-benzo[b][1,4]oxazin-3(4H)-one] | 104 | 0.766 | 79.6 | –
9 | COC(CN1CCN(c2cccc3sccc23)CC1)c1cccc2c1OCC(=O)N2 (stereo not drawn) [Compound of example 144, 8-(2-(4-(benzo[b]thiophen-4-yl)piperazin-1-yl)-1-methoxyethyl)-2H-benzo[b][1,4]oxazin-3(4H)-one] | – | 8.93 | 65.8 | 17
10 | O=C1Cc2cc(C(O)CN3CCN(c4cccc5sccc45)CC3)ccc2N1 (stereo not drawn) [Compound of example 145, 5-(2-(4-(benzo[b]thiophen-4-yl)piperazin-1-yl)-1-hydroxyethyl)indolin-2-one] | 14.7 | 6.3 | 192 | –
11 | O=C1CCc2ccc(C(O)CCCCN3CCN(c4cccc5sccc45)CC3)cc2N1 (stereo not drawn) [Compound of example 150, 7-(5-(4-(benzo[b]thiophen-4-yl)piperazin-1-yl)-1-hydroxypentyl)-3,4-dihydroquinolin-2(1H)-one] | 108 | 15.7 | 4.54 | –
12 | CC(=O)Nc1nc2ccc(CCN3CCN(c4cccc5sccc45)CC3)cc2s1 [Compound of example 153, N-(6-(2-(4-(benzo[b]thiophen-4-yl)piperazin-1-yl)ethyl)benzo[d]thiazol-2-yl)acetamide] | 18.9 | 2.35 | 3.8 | –
